Holding throughout (assay): kinome screen (33PanQinase)
Holding throughout (format): biochemical

One experiment concerns the target T1, BLK (Homo sapiens, UniProt P51451).
T1 construct: purchased Reaction Biology Europe GmbH (formerly ProQinase)
Here is the method:
(§1) The Kinome Screening was performed by Reaction Biology Europe GmbH (http://reactionbiology.com; Freiburg i. Br., Germany).

The target in another experiment is T2, CK1γ2 (Homo sapiens, UniProt P78368).
T2 construct: purchased Reaction Biology Europe GmbH (formerly ProQinase)
Here is the method: as §1

The next experiment deals with T3, ERK7 (Homo sapiens, UniProt Q8TD08).
T3 construct: purchased Reaction Biology Europe GmbH (formerly ProQinase)
T3 sequence (Q8TD08 1-544): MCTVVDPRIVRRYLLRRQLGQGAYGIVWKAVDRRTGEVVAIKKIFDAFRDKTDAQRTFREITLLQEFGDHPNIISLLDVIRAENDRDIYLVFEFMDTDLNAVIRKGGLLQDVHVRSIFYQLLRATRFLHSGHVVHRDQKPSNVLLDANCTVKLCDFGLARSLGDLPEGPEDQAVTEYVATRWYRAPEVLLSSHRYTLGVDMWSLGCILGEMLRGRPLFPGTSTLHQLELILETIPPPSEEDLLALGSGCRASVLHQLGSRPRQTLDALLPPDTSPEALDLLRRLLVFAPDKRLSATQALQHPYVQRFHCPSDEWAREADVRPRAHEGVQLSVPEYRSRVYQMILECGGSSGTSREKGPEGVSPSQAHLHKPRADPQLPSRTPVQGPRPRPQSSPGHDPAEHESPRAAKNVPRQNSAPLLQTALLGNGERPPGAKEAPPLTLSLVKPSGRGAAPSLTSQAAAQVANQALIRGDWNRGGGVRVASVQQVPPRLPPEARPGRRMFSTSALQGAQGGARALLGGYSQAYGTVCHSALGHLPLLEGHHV
Here is the method:
as §1

A further experiment has as its target T4, FGFR3 (Homo sapiens, UniProt P22607).
T4 construct: purchased Reaction Biology Europe GmbH (formerly ProQinase)
Here is the method: as §1

The target of another experiment is T5, GRK6 (Homo sapiens, UniProt P43250).
T5 construct: purchased Reaction Biology Europe GmbH (formerly ProQinase)
Here is the method: as §1

The target in a further experiment is T6, MAP3K1 (Homo sapiens, UniProt Q13233).
T6 construct: purchased Reaction Biology Europe GmbH (formerly ProQinase)
Here is the method:
as §1

A further experiment concerns the target T7, PHKG2 (Homo sapiens, UniProt P15735).
T7 construct: purchased Reaction Biology Europe GmbH (formerly ProQinase)
T7 sequence (P15735 1-406): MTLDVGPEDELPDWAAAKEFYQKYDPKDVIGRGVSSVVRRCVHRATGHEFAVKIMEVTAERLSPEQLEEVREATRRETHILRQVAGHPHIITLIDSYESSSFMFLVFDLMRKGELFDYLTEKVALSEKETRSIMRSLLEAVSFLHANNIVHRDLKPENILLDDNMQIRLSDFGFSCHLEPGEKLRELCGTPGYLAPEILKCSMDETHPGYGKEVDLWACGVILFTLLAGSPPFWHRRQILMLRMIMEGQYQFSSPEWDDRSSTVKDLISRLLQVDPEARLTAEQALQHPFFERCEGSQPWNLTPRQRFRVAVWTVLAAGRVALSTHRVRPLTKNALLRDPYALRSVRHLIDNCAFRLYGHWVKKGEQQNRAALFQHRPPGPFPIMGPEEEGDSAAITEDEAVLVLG
Here is the method:
as §1

The target in another experiment is T8, PRKD2 (Homo sapiens, UniProt Q9BZL6).
T8 construct: purchased Reaction Biology Europe GmbH (formerly ProQinase)
T8 sequence (Q9BZL6 1-878): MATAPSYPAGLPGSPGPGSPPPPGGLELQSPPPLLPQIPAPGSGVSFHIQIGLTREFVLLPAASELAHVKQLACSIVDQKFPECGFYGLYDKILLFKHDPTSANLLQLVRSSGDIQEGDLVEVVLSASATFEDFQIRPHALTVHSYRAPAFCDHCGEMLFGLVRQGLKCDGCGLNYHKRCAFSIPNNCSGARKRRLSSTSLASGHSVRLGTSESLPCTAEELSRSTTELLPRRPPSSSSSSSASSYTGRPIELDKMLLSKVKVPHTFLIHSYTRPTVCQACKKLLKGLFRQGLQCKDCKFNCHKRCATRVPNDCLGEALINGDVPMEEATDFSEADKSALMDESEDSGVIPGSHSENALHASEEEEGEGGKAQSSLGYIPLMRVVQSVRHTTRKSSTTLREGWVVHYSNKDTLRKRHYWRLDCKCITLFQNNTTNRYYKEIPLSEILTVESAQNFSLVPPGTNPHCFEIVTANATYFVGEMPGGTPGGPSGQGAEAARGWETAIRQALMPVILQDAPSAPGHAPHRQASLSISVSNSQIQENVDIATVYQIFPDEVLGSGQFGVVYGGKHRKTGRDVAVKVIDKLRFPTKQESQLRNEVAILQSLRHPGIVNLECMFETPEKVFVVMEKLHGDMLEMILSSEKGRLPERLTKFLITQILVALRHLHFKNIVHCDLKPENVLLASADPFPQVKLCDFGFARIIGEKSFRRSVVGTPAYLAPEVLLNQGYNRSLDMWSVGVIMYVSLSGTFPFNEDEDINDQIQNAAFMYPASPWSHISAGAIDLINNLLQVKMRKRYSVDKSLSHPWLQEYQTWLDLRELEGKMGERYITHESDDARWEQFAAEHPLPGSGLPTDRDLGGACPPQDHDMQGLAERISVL
As to the method: as §1

The target in a further experiment is T9, RPS6KA5 (Homo sapiens, UniProt O75582).
T9 construct: purchased Reaction Biology Europe GmbH (formerly ProQinase)
Here is the method: as §1

A further experiment concerns the target T10, STK17A (Homo sapiens, UniProt Q9UEE5).
T10 construct: purchased Reaction Biology Europe GmbH (formerly ProQinase)
T10 sequence (Q9UEE5 1-414): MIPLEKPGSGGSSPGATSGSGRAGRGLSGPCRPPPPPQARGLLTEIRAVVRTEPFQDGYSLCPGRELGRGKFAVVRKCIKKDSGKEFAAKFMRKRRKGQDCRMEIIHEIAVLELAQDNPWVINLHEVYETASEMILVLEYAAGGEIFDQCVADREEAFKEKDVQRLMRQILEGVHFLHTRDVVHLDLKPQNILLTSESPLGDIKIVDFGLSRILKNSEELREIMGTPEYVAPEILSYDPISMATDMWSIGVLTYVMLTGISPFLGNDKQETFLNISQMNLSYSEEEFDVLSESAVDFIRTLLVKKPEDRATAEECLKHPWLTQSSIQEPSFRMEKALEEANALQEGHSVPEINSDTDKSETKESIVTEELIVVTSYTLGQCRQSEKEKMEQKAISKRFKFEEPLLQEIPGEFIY
Here is the method: as §1

For a further experiment, the target named is T11, VRK2 (Homo sapiens, UniProt Q86Y07).
T11 construct: purchased Reaction Biology Europe GmbH (formerly ProQinase)
As to the method: as §1

T9 sequence (O75582 whole entry): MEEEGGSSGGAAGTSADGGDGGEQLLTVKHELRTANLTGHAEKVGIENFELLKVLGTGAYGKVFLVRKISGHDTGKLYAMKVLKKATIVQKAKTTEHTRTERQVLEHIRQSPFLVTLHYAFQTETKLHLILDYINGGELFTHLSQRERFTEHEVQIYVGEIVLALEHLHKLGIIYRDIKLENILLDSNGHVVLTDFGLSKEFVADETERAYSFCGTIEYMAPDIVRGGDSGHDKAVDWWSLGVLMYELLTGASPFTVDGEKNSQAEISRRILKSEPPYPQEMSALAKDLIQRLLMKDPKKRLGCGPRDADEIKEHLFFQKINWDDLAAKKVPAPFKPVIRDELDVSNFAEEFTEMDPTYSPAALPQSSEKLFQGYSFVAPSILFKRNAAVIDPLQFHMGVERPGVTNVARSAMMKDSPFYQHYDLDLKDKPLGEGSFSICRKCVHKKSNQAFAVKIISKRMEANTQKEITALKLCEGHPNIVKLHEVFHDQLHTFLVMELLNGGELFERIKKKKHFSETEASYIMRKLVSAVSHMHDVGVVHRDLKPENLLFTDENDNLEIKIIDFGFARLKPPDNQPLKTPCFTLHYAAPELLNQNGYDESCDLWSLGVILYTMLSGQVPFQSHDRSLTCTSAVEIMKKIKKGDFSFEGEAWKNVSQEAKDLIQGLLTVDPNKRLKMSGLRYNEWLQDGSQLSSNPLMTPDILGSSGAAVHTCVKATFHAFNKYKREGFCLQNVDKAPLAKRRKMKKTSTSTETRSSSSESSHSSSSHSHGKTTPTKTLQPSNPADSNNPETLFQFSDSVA
T4 sequence (P22607 23-806): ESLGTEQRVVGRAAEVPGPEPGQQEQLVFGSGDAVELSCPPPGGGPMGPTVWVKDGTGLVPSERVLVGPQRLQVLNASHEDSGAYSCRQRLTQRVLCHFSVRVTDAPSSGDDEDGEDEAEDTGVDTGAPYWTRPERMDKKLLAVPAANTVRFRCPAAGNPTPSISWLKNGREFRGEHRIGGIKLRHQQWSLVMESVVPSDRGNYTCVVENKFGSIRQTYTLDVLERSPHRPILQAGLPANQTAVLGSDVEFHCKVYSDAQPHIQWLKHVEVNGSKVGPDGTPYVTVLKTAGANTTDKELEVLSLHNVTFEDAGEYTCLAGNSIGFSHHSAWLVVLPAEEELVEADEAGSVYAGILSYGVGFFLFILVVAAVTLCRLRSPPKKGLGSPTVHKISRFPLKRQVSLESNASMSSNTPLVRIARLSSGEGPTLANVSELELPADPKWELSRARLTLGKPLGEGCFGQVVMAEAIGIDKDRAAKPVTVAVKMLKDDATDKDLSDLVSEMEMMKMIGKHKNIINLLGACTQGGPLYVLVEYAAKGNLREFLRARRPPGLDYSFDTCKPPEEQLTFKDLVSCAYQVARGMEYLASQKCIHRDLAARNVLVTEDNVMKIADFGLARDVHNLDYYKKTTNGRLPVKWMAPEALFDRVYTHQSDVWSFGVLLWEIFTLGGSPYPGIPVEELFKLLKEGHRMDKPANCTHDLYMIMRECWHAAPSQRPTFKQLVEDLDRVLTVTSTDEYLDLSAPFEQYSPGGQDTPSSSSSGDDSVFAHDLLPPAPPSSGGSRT
T11 sequence (Q86Y07 whole entry): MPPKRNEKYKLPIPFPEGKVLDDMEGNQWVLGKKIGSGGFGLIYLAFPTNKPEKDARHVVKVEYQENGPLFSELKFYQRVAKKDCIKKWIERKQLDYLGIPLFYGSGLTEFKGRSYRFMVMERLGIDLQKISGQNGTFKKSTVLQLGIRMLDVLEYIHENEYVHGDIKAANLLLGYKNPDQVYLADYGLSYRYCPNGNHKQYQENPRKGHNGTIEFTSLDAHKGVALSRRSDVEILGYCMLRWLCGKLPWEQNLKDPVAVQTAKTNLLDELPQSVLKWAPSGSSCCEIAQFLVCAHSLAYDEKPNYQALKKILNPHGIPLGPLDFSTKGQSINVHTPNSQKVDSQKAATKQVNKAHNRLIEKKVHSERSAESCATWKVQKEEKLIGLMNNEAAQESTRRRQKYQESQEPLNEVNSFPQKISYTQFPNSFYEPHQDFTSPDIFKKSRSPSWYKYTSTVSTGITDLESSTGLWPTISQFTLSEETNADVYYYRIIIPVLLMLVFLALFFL
T2 sequence (P78368 whole entry): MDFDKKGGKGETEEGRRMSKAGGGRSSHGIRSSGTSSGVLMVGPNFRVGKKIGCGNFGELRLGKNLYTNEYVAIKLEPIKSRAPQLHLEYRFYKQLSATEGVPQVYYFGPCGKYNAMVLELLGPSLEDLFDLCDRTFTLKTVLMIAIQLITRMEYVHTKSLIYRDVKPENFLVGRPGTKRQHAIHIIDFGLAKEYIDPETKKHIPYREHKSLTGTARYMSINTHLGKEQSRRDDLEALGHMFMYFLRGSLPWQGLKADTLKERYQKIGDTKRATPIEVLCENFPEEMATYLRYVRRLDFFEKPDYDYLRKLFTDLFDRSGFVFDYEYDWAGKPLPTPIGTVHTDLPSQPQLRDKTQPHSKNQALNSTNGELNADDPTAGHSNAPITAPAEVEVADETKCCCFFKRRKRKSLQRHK
T5 sequence (P43250 whole entry): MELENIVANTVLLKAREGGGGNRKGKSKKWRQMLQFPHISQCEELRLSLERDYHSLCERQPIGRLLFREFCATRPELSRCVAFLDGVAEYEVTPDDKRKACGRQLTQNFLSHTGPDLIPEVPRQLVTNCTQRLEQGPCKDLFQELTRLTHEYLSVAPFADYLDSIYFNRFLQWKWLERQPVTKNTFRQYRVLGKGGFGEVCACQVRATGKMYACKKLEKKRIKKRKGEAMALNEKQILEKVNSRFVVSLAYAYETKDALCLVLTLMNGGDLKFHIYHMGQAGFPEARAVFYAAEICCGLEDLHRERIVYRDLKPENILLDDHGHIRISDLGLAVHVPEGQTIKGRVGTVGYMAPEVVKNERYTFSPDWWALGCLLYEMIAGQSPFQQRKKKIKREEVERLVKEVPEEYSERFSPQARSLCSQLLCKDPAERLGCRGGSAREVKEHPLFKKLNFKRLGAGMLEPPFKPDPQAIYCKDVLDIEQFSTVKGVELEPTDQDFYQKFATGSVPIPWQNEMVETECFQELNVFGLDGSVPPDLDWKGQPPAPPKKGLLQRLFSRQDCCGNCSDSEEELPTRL
T1 sequence (P51451 whole entry): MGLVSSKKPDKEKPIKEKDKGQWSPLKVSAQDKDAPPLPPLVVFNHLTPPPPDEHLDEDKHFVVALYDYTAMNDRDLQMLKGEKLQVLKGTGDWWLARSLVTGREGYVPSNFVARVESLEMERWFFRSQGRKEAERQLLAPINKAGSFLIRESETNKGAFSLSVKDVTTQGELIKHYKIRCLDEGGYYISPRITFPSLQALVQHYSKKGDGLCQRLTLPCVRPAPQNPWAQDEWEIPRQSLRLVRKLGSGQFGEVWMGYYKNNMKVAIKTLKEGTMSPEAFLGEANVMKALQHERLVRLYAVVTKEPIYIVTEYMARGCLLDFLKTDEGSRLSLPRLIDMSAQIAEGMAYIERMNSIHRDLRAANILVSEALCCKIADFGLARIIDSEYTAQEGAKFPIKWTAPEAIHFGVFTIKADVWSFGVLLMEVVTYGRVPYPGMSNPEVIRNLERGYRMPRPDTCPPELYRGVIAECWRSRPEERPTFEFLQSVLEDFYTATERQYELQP

For `COc1ccnc2[nH]cc(-c3cc(N)nc(N)c3)c12` [meriolin 16], the residual kinase activity at BLK (0.03 µM) was 126 % of control; on BLK (0.3 µM) it was 95 % of control; on CK1γ2 (0.03 µM), 86 % of control; on CK1γ2 (0.3 µM), 30 % of control; on ERK7 (0.03 µM), 86 % of control; at ERK7 (0.3 µM), 59 % of control. The residual kinase activity is 93 % of control at FGFR3 (0.03 µM); 84 % of control at FGFR3 (0.3 µM); 98 % of control at GRK6 (0.03 µM); 93 % of control on GRK6 (0.3 µM); 105 % of control on MAP3K1 (0.03 µM); 106 % of control on MAP3K1 (0.3 µM). The residual kinase activity at PHKG2 (0.03 µM) is listed as 74 % of control; at PHKG2 (0.3 µM), 52 % of control; on PRKD2 (0.03 µM), 87 % of control; on PRKD2 (0.3 µM), 37 % of control; at RPS6KA5 (0.03 µM) it was 89 % of control; at RPS6KA5 (0.3 µM), 82 % of control. Also, the residual kinase activity is on record as 83 % of control on STK17A (0.03 µM), 23 % of control on STK17A (0.3 µM), 103 % of control at VRK2 (0.03 µM) and 92 % of control at VRK2 (0.3 µM).
On to `c1ccc(CNc2cc(-c3c[nH]c4ncccc34)ccn2)cc1` [meriolin 36], for which the residual kinase activity on BLK (0.3 µM) is recorded as 88 % of control; on BLK (3 µM) it was 13 % of control; on CK1γ2 (0.3 µM) it was 19 % of control; at CK1γ2 (3 µM) it was 3 % of control; at ERK7 (0.3 µM) it was 7 % of control; at ERK7 (3 µM) it was -3 % of control. For the same compound, the residual kinase activity on FGFR3 (0.3 µM) is given as 64 % of control; on FGFR3 (3 µM) it was 20 % of control; on GRK6 (0.3 µM), 96 % of control; at GRK6 (3 µM) it was 54 % of control; at MAP3K1 (0.3 µM), 94 % of control; at MAP3K1 (3 µM), 93 % of control. The residual kinase activity on PHKG2 (0.3 µM) is listed as 52 % of control; on PHKG2 (3 µM), 23 % of control; on PRKD2 (0.3 µM), 68 % of control; on PRKD2 (3 µM) it was 25 % of control; on RPS6KA5 (0.3 µM), 46 % of control; at RPS6KA5 (3 µM), 15 % of control. Besides, the residual kinase activity on STK17A (0.3 µM) is on record as 23 % of control; on STK17A (3 µM) it was 4 % of control; on VRK2 (0.3 µM), 93 % of control; at VRK2 (3 µM) it was 45 % of control.
